Test results reported in the supplement of paper PMC10307832.

Experiments:
Assay in all cases: relative viability (nuclei count vs DMSO), 5 days (fraction); higher = more cells survive
[1] = compound: NS(=O)(=O)OC[C@@H]1C[C@@H](n2ccc3c(N[C@H]4CCc5ccccc54)ncnc32)C[C@@H]1O [MLN4924] + CS(=O)(=O)CCNCc1ccc(-c2ccc3ncnc(Nc4ccc(OCc5cccc(F)c5)c(Cl)c4)c3c2)o1 [Lapatinib] (partner 2 µM)
Method in brief: (§1)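 Nuclei were stained with Hoechst during a one-step fixation (final 0.05% Triton X-100, 1% formaldehyde, 1 ug/ml Hoechst) carried out 5 days after dosing, then counted on 4× images. The cells, lung cancer lines in 1536-well plates, had been dosed by pin tool the day after seeding with one drug alone or a fixed anchor-drug dose plus five library-drug doses (not always all listed) in √10 steps. Relative viability is the nuclei count in treated wells divided by that in vehicle wells, and each value is the median of duplicate plates.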

[2] = compound: NS(=O)(=O)OC[C@@H]1C[C@@H](n2ccc3c(N[C@H]4CCc5ccccc54)ncnc32)C[C@@H]1O [MLN4924] + CCNC(=O)c1noc(-c2cc(C(C)C)c(O)cc2O)c1-c1ccc(CN2CCOCC2)cc1 [Luminespib] (partner 0.01 µM)
Method in brief: as §1

[3] = compound: CC[C@H](C)N1C=C(C2=C(C=C(C=C21)C3=CN=C(C=C3)N4CCNCC4)C(=O)NCC5=C(C=C(NC5=O)C)C)C [GSK126] + CS(=O)(=O)N1CCN(Cc2cc3nc(-c4cccc5[nH]ncc45)nc(N4CCOCC4)c3s2)CC1 [Pictilisib] (partner 1 µM)
Method in brief: as §1

[4] = compound: C1CC(C1)(C(=O)O)C(=O)O.[NH2-].[NH2-].[Pt+2] [Carboplatin] + Cc1nc(Nc2ncc(C(=O)Nc3c(C)cccc3Cl)s2)cc(N2CCN(CCO)CC2)n1 [Dasatinib] (partner 0.075 µM)
Method in brief: as §1

Row | Cell Line | relative viability ([1]; first compound 0.04 µM) | relative viability ([1]; first compound 0.1265 µM) | relative viability ([1]; first compound 0.4 µM) | relative viability ([1]; first compound 1.265 µM) | relative viability ([1]; first compound 4 µM) | relative viability ([2]; first compound 0.04 µM) | relative viability ([2]; first compound 0.1265 µM) | relative viability ([2]; first compound 0.4 µM) | relative viability ([2]; first compound 1.265 µM) | relative viability ([2]; first compound 4 µM) | relative viability ([3]; first compound 0.08 µM) | relative viability ([3]; first compound 0.253 µM) | relative viability ([3]; first compound 0.8 µM) | relative viability ([3]; first compound 2.53 µM) | relative viability ([3]; first compound 8 µM) | relative viability ([4]; first compound 0.08 µM) | relative viability ([4]; first compound 0.253 µM) | relative viability ([4]; first compound 0.8 µM) | relative viability ([4]; first compound 2.53 µM) | relative viability ([4]; first compound 8 µM)
1 | NCI-H2023 | 0.352 | 0.133 | 0.0733 | 0.0477 | 0.0781 | 0.651 | 0.539 | 0.179 | 0.0673 | 0.0714 | 0.26 | 0.253 | 0.247 | 0.306 | 0.256 | 0.584 | 0.635 | 0.471 | 0.29 | 0.149
2 | NCI-H1395 | 0.793 | 0.986 | 0.5 | 0.39 | 0.351 | 0.867 | 0.619 | 0.539 | 0.429 | 0.346 | 0.653 | 0.653 | 0.798 | 0.699 | 0.726 | 0.423 | 0.367 | 0.392 | 0.42 | 0.516
3 | NCI-H2347 | 0.746 | 0.897 | 0.487 | 0.338 | 0.412 | 0.397 | 0.351 | 0.575 | 0.332 | 0.255 | 0.602 | 0.661 | 0.567 | 0.511 | 0.616 | 0.325 | 0.26 | 0.346 | 0.322 | 0.273
4 | LXF-289 | 0.804 | 0.682 | 0.416 | 0.184 | 0.15 | 0.61 | 0.425 | 0.386 | 0.153 | 0.144 | 0.835 | 0.791 | 0.732 | 0.769 | 0.8 | 0.327 | 0.24 | 0.223 | 0.264 | 0.232
5 | NCI-H1563 | 1.38 | 0.759 | 0.627 | 0.485 | 0.61 | 0.556 | 0.539 | 0.53 | 0.435 | 0.407 | 0.616 | 0.715 | 0.695 | 0.648 | 0.551 | 0.496 | 0.464 | 0.439 | 0.399 | 0.445
6 | EMC-BAC-2 | 0.468 | 0.913 | 0.303 | 0.217 | 0.178 | 0.906 | 0.495 | 0.303 | 0.276 | 0.325 | 0.516 | 0.549 | 0.496 | 0.53 | 0.592 | 0.327 | 0.343 | 0.305 | 0.271 | 0.281
7 | LC-2-ad | 0.561 | 0.505 | 0.143 | 0.104 | 0.107 | 0.959 | 0.764 | 0.507 | 0.282 | 0.274 | 0.506 | 0.687 | 0.647 | 0.522 | 0.567 | 0.701 | 0.567 | 0.414 | 0.416 | 0.277
8 | ABC-1 | 1.11 | 1.45 | 1.71 | 0.773 | 0.552 | 1.14 | 0.548 | 0.306 | 0.184 | 0.24 | 0.972 | 1.03 | 0.732 | 0.858 | 0.687 | 0.654 | 0.639 | 0.522 | 0.546 | 0.458
9 | NCI-H647 | 0.817 | 0.539 | 0.0888 | 0.0473 | 0.0818 | 0.193 | 0.157 | 0.127 | 0.0558 | 0.0842 | 0.441 | 0.351 | 0.404 | 0.528 | 0.337 | 0.196 | 0.18 | 0.216 | 0.164 | 0.161
10 | NCI-H1734 | 1.02 | 0.925 | 0.19 | 0.118 | 0.134 | 0.202 | 0.189 | 0.187 | 0.122 | 0.137 | 0.49 | 0.403 | 0.408 | 0.43 | 0.45 | 0.471 | 0.449 | 0.454 | 0.463 | 0.443
11 | LOU-NH91 | 0.814 | 0.926 | 0.904 | 0.533 | 0.414 | 0.334 | 0.3 | 0.281 | 0.246 | 0.303 | 0.519 | 0.501 | 0.557 | 0.524 | 0.545 | 0.674 | 0.578 | 0.542 | 0.568 | 0.538
12 | NCI-H1793 | 0.662 | 0.645 | 0.395 | 0.136 | 0.167 | 0.162 | 0.125 | 0.182 | 0.297 | 0.148 | 0.224 | 0.37 | 0.36 | 0.502 | 0.343 | 0.432 | 0.384 | 0.394 | 0.355 | 0.381
13 | RERF-LC-KJ | 0.746 | 0.555 | 0.227 | 0.191 | 0.221 | 1.01 | 0.629 | 0.328 | 0.265 | 0.272 | 0.551 | 0.554 | 0.589 | 0.529 | 0.55 | 0.892 | 0.767 | 0.747 | 0.706 | 0.517
14 | H3255 | 0.253 | 0.38 | 0.201 | 0.185 | 0.208 | 0.843 | 0.73 | 0.541 | 0.288 | 0.292 | 0.472 | 0.512 | 0.492 | 0.466 | 0.441 | 0.367 | 0.416 | 0.418 | 0.415 | 0.334
15 | A-427 | 0.589 | 0.608 | 0.268 | 0.196 | 0.169 | 0.465 | 0.245 | 0.263 | 0.178 | 0.216 | 0.855 | 0.786 | 0.701 | 0.799 | 0.641 | 0.728 | 0.772 | 0.716 | 0.704 | 0.657
